Test results: patent US10421760B2, “Pyrrolo[2,3-d]pyrimidine compound or salt thereof” (TAIHO PHARMACEUTICAL CO., LTD., priority 2015, dated 2019)

Experiments:
[1] = target: purified recombinant human JAK1 protein (Homo sapiens (Human), UniProt P23458); assay: JAK1 kinase-inhibiting activity (mobility shift, LabChip EZ Reader II); type: biochemical; conditions: ATP 75 μM, 25° C., 120 minutes
Procedure: 1) Measurement of JAK1 Kinase-Inhibiting Activity
The activity of the compound of the present invention to inhibit the activity of JAK1 kinase was measured.
(§1) Among materials for the measurement of this inhibiting activity, a substrate peptide and a kinase protein were acquired as follows. As such a substrate peptide, a substrate peptide for QSS Assist JAK1-MSA assay kit (Carna Biosciences, Inc.) was purchased. As such a kinase protein, a purified recombinant human JAK1 protein (Carna Biosciences, Inc.) was purchased.
The method for measuring the inhibiting activity is as follows. First, the compounds of the present invention were each dissolved in dimethyl sulfoxide (DMSO), and a serial dilution was then prepared using DMSO. Subsequently, a serial dilution solution of the compound (the final concentration of DMSO upon a kinase reaction: 5.0%) or DMSO (final concentration: 5.0%) was mixed with a solution comprising the substrate peptide (final concentration: 1 μM), magnesium chloride (final concentration: 5 mM) and ATP (final concentration: 75 μM) in a buffer for kinase reaction (20 mM HEPES (pH 7.5), 2 mM dithiothreitol and 0.01% Triton X-100). Thereafter, a JAK1 protein was further added to the mixed solution, and the obtained mixture was then incubated at 25° C. for 120 minutes to carry out a kinase reaction. To the reaction solution, EDTA was added to a final concentration of 30 mM, so as to terminate the reaction. Finally, using LabChip EZ Reader II (Perkin Elmer Corp.), an unphosphorylated substrate peptide (S) and a phosphorylated peptide (P) were subjected to microchannel capillary electrophoresis, so that the two peptides were separated from each other and were then detected. The amount of a phosphorylation reaction was obtained based on the heights of the peaks of S and P, and the concentration of the compound capable of inhibiting 50% of the phosphorylation reaction was defined as an IC50 value (nM).

[2] = target: purified recombinant human JAK3 protein (Homo sapiens (Human), UniProt P52333); assay: JAK3 kinase-inhibiting activity (mobility shift, LabChip EZ Reader II); type: biochemical; conditions: for IC50: ATP 5 μM, 25° C., 80 minutes
Procedure: 3) Measurement of JAK3 Kinase-Inhibiting Activity
The activity of the compound of the present invention to inhibit the activity of JAK3 kinase was measured.
as §1, with “JAK3-MSA” for “JAK1-MSA”, “JAK3” for “JAK1”
The method for measuring the inhibiting activity is as follows. First, a serial dilution of the compound of the present invention was prepared by the same method as that described in the above section regarding JAK1. This serial dilution solution (the final concentration of DMSO upon a kinase reaction: 5.0%) or DMSO (final concentration: 5.0%) was mixed with a solution comprising the substrate peptide (final concentration: 1 μM), magnesium chloride (final concentration: 5 mM) and ATP (final concentration: 5 μM) in a buffer for kinase reaction (20 mM HEPES (pH 7.5), 2 mM dithiothreitol and 0.01% Triton X-100). Thereafter, a JAK3 protein was further added to the mixed solution, and the obtained mixture was then incubated at 25° C. for 80 minutes to carry out a kinase reaction. To the reaction solution, EDTA was added to a final concentration of 30 mM, so as to terminate the reaction. After termination of the reaction, the measurement and the data analysis were carried out by the same methods as those described in the above section regarding JAK1.

human PBMC = assay: IL-2-dependent growth of human peripheral blood mononuclear cells (CellTiter-Glo); type: cell-based; conditions: 48 h, IL-2 2 ng/mL stimulation, 2 days
Procedure: The activity of the compound of the present invention to inhibit the IL-2-dependent growth reaction of human PBMC, which is caused by JAK3, was measured (Arthritis Rheum. 2010; 62(8): 2283-93).
Using a medium comprising 10 μg/mL PHA-M (Sigma) (which is RPMI-1640 (Sigma) comprising 10% human serum type AB (MP Biomedicals)), human PBMC (C.T.L.) (cell density: 1×10^6 cells/mL) was cultured at 37° C. in a culture vessel comprising 5% carbon dioxide for 3 days. Thereafter, the culture was washed with RPMI-1640 four times, and a medium (RPMI-1640 comprising 10% human serum type AB) was then added to the resultant culture to prepare a cell suspension. The cells (1×10^4 cells per well) and the serially diluted compound of the present invention were added to each well of a 96-well U-bottom microplate, and the thus obtained mixture was then cultured at 37° C. in a culture vessel comprising 5% carbon dioxide for 30 minutes. After completion of the culture, recombinant human IL-2 (Peprotech) was added to the culture to a final concentration of 2 ng/mL, and the obtained mixture was then stirred at 37° C. in a culture vessel comprising 5% carbon dioxide for 2 days (1×10^4 cells/100 μl/each well). After completion of the culture, the resultant was left at a room temperature for 30 minutes, and 100 μl of CellTiter-Glo Luminescent Cell Viability Assay (Promega) was then added to the resultant, followed by stirring it. Thereafter, the reaction mixture was left for 10 minutes, and the amount of a luminescence derived from living cells in each well was then measured using a microplate reader (TECAN). The inhibition rate of the present compound to the cell growth caused by IL-2 stimulation was calculated, and the concentration of the compound capable of inhibiting 50% of the cell growth was defined as an IC50 value (nM).

[3] = target: purified recombinant human JAK2 protein (Homo sapiens (Human), UniProt O60674); assay: JAK2 kinase-inhibiting activity (mobility shift, LabChip EZ Reader II); type: biochemical; conditions: ATP 10 μM, 25° C., 80 minutes
Procedure: 2) Measurement of JAK2 Kinase-Inhibiting Activity
The activity of the compound of the present invention to inhibit the activity of JAK2 kinase was measured.
as §1, with “FL-Peptide 22 (Perkin Elmer Corp.)” for “a substrate peptide for QSS Assist JAK1-MSA assay kit (Carna Biosciences, Inc.)”, “JAK2” for “JAK1”
The method for measuring the inhibiting activity is as follows. First, a serial dilution of the compound of the present invention was prepared by the same method as that described in the above section regarding JAK1. This serial dilution solution (the final concentration of DMSO upon a kinase reaction: 5.0%) or DMSO (final concentration: 5.0%) was mixed with a solution comprising the substrate peptide (final concentration: 1 μM), magnesium chloride (final concentration: 10 mM) and ATP (final concentration: 10 μM) in a buffer for kinase reaction (15 mM Tris (pH 7.5), 2 mM dithiothreitol and 0.01% Tween 20). Thereafter, a JAK2 protein was further added to the mixed solution, and the obtained mixture was then incubated at 25° C. for 80 minutes to carry out a kinase reaction. To the reaction solution, EDTA was added to a final concentration of 30 mM, so as to terminate the reaction. After termination of the reaction, the measurement and the data analysis were carried out by the same methods as those described in the above section regarding JAK1.

Chain of purified recombinant human JAK1 protein (P23458 whole entry): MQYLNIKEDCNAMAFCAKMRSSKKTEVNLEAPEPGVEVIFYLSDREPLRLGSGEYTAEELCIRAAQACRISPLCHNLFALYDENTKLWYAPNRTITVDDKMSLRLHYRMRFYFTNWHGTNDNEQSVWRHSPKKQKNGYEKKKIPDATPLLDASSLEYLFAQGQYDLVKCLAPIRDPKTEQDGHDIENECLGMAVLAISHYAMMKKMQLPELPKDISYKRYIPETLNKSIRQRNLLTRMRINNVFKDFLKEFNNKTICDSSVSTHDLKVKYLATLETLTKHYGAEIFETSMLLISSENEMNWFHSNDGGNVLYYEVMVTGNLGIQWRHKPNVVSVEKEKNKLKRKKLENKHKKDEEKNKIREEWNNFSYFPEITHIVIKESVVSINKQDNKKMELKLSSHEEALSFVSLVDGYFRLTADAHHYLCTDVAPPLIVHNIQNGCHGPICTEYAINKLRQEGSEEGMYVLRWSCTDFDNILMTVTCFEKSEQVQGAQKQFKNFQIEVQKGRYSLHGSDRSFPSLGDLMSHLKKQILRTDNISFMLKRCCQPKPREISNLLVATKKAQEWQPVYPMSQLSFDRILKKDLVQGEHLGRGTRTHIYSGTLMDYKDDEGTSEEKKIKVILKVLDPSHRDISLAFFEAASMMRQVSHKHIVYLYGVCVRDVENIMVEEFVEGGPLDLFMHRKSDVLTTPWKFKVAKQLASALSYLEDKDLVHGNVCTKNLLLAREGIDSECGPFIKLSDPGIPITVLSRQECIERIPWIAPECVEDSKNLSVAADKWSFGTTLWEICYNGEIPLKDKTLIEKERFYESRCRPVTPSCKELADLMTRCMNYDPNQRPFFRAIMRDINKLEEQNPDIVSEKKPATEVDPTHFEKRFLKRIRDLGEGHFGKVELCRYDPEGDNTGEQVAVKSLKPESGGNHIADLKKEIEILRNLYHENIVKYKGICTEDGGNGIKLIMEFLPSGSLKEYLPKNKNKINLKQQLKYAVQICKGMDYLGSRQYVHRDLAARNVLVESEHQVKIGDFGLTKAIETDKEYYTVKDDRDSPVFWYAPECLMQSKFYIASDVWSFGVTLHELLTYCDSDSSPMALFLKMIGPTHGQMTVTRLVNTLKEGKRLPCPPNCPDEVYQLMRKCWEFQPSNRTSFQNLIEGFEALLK
Chain of purified recombinant human JAK3 protein (P52333 whole entry): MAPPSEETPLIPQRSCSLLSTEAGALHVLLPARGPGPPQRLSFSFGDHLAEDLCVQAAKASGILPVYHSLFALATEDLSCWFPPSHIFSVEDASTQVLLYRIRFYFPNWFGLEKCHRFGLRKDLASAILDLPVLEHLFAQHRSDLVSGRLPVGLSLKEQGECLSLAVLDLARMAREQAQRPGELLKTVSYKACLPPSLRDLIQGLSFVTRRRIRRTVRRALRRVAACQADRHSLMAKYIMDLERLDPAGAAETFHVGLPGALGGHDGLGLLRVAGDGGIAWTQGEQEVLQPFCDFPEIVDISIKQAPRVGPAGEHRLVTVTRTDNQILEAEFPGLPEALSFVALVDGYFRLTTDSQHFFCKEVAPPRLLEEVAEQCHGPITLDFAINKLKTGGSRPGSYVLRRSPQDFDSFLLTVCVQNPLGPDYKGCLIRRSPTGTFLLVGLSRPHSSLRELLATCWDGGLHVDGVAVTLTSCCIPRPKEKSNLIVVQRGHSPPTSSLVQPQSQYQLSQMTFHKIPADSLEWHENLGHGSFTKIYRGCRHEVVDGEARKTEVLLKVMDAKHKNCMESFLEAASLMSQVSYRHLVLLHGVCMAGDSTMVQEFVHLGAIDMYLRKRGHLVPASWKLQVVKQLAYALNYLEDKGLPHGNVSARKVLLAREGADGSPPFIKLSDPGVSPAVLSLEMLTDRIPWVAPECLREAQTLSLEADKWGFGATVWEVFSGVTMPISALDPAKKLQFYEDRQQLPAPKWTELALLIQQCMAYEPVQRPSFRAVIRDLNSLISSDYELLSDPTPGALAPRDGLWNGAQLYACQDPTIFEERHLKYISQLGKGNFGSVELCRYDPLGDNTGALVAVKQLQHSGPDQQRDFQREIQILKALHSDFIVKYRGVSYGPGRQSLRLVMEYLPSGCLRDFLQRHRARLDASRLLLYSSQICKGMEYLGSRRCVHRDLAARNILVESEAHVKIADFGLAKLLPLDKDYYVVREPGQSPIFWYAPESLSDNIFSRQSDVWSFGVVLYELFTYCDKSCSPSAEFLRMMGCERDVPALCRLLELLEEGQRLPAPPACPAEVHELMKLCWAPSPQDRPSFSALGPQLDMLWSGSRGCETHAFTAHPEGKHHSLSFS
Chain of purified recombinant human JAK2 protein (O60674 whole entry): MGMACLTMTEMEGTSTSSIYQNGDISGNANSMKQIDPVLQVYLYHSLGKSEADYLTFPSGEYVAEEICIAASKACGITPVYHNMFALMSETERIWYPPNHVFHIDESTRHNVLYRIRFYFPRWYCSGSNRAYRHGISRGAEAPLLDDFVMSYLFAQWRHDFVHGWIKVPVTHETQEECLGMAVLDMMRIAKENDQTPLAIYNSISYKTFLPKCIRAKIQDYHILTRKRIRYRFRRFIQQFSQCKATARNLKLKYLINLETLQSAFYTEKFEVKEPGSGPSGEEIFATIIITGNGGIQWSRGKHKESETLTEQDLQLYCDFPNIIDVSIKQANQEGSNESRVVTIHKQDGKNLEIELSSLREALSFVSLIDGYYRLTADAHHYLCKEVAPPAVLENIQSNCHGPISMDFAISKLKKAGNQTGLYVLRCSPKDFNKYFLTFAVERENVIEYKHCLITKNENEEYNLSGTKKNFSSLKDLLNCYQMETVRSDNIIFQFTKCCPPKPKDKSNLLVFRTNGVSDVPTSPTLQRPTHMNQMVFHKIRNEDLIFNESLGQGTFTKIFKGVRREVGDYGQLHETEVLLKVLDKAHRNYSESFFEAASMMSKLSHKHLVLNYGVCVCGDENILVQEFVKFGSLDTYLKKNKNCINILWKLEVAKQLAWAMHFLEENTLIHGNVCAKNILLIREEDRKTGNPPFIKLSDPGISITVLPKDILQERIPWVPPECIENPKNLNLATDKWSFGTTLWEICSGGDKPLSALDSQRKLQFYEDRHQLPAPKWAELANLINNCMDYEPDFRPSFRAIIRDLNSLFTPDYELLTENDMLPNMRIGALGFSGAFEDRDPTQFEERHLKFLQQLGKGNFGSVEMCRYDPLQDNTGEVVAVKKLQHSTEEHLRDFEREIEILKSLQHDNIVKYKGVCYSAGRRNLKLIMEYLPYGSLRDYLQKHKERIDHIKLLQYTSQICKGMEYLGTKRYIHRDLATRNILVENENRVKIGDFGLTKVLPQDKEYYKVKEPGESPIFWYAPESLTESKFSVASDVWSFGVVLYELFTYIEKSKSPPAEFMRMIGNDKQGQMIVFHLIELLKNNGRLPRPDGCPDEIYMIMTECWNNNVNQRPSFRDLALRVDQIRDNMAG

SMILES	IC50 [1]	IC50 [2]	JAK3-inhibiting activity attenuated in comparison to the compound of the present invention ([2]; in terms of IC50 value)	IC50 [3]	selectivity to JAK3 versus JAK1 or JAK2 ([2]; in terms of IC50 value)	IC50 (human PBMC)
C=C(C)C(=O)NC1CCC=C(c2ncnc3[nH]cc(-c4ccccc4)c23)C1 (stereo not shown) [Comparative Example 1, N-(3-(5-Phenyl-7H-pyrrolo[2,3-d]pyrimidin-4-yl)cyclohex-3-en-1-yl)methacrylamide, reference compound]	880 nM	44 nM	≥ 20 times	–	–	–
C/C=C/C(=O)NC1CCC=C(c2ncnc3[nH]cc(-c4ccccc4)c23)C1 (stereo not shown) [Comparative Example 2, (E)-N-(3-(5-Phenyl-7H-pyrrolo[2,3-d]pyrimidin-4-yl)cyclohex-3-en-1-yl)but-2-enamide, reference compound]	730 nM	27 nM	≥ 20 times	–	–	–
C=CC(=O)NC1CCC=C(c2ncnc3[nH]cc(-c4ccc(C)cc4)c23)C1 (stereo not shown) [Comparative Example 4, N-(3-(5-(p-Tolyl)-7H-pyrrolo[2,3-d]pyrimidin-4-yl)cyclohex-3-en-1-yl)acrylamide, reference compound]	–	–	–	–	–	> 1000 nM
C=CC(=O)NC1CCC=C(c2ncnc3[nH]cc(-c4ncccn4)c23)C1 (stereo not shown) [Comparative Example 8, N-(3-(5-(Pyrimidin-2-yl)-7H-pyrrolo[2,3-d]pyrimidin-4-yl)cyclohex-3-en-1-yl)acrylamide, reference compound]	–	21.4 nM	≥ 20 times	> 10000 nM	–	–
C=CC(=O)NC1CCC=C(c2ncnc3[nH]cc(-c4cc5ccccc5o4)c23)C1 (stereo not shown) [Comparative Example 9, N-(3-(5-(Benzofuran-2-yl)-7H-pyrrolo[2,3-d]pyrimidin-4-yl)cyclohex-3-en-1-yl)acrylamide, reference compound]	–	–	–	–	–	> 1000 nM
C1=C(c2ncnc3[nH]ccc23)CCCC1 [Comparative Example 10, 4-(Cyclohex-1-en-1-yl)-7H-pyrrolo[2,3-d]pyrimidine, reference compound]	414 nM	125 nM	≥ 100 times	166 nM	not observed	–
C=CC(=O)N[C@H]1CCC[C@@H](c2ncnc3[nH]cc(-c4ccco4)c23)C1 [Comparative Example 11(a), N-((1S,3R)-3-(5-(Furan-2-yl)-7H-pyrrolo[2,3-d]pyrimidin-4-yl)cyclohexyl)acrylamide, reference compound]	> 10000 nM	21 nM	–	2440 nM	–	> 3000 nM
C=CC(=O)N[C@H]1CCC[C@H](c2ncnc3[nH]cc(-c4ccco4)c23)C1 [Comparative Example 11(b), N-((1S,3S)-3-(5-(Furan-2-yl)-7H-pyrrolo[2,3-d]pyrimidin-4-yl)cyclohexyl)acrylamide, reference compound]	> 10000 nM	19 nM	–	880 nM	–	1940 nM
C=CC(=O)NC1CCC=C(c2ncnc3[nH]cc(-c4ccccc4)c23)C1 (stereo not shown) [Compound 1, N-(3-(5-phenyl-7H-pyrrolo[2,3-d]pyrimidin-4-yl)cyclohex-3-en-1-yl)acrylamide]	880 nM	< 0.3 nM	–	470 nM	–	–

Second part, led by results:

IC50 [1]	IC50 [2]	JAK3-inhibiting activity attenuated in comparison to the compound of the present invention ([2]; in terms of IC50 value)	IC50 [3]	selectivity to JAK3 versus JAK1 or JAK2 ([2]; in terms of IC50 value)	SMILES	IC50 (human PBMC)
900 nM	< 0.3 nM	–	480 nM	–	C=CC(=O)NC1CCC=C(c2ncnc3[nH]cc(-c4cccs4)c23)C1 (stereo not shown) [Compound 2, N-(3-(5-(Thiophen-2-yl)-7H-pyrrolo[2,3-d]pyrimidin-4-yl)cyclohex-3-en-1-yl)acrylamide]	110 nM
1500 nM	< 0.3 nM	–	850 nM	–	C=CC(=O)NC1CCC=C(c2ncnc3[nH]cc(-c4ccsc4)c23)C1 (stereo not shown) [Compound 3, N-(3-(5-(Thiophen-3-yl)-7H-pyrrolo[2,3-d]pyrimidin-4-yl)cyclohex-3-en-1-yl)acrylamide]	–
2900 nM	0.42 nM	–	1300 nM	–	C=CC(=O)NC1CCC=C(c2ncnc3[nH]cc(-c4ccoc4)c23)C1 (stereo not shown) [Compound 4, N-(3-(5-(Furan-3-yl)-7H-pyrrolo[2,3-d]pyrimidin-4-yl)cyclohex-3-en-1-yl)acrylamide]	–
720 nM	< 0.3 nM	–	430 nM	–	C=CC(=O)NC1CCC=C(c2ncnc3[nH]cc(-c4ccco4)c23)C1 (stereo not shown) [Compound 5, N-(3-(5-(Furan-2-yl)-7H-pyrrolo[2,3-d]pyrimidin-4-yl)cyclohex-3-en-1-yl)acrylamide]	38 nM
–	0.68 nM	–	660 nM	–	C=CC(=O)NC1C=C(c2ncnc3[nH]cc(-c4ccccc4)c23)CC1 (stereo not shown) [Compound 10, N-(3-(5-Phenyl-7H-pyrrolo[2,3-d]pyrimidin-4-yl)cyclopent-2-en-1-yl)acrylamide]	–
3200 nM	0.35 nM	–	870 nM	–	C=CC(=O)NC1C=C(c2ncnc3[nH]cc(-c4ccccc4)c23)CCC1 (stereo not shown) [Compound 12, N-(3-(5-Phenyl-7H-pyrrolo[2,3-d]pyrimidin-4-yl)cyclohex-2-en-1-yl)acrylamide]	–
2600 nM	0.33 nM	–	450 nM	–	C=CC(=O)NC1C=C(c2ncnc3[nH]cc(-c4ccco4)c23)CCC1 (stereo not shown) [Compound 15, N-(3-(5-(Furan-2-yl)-7H-pyrrolo[2,3-d]pyrimidin-4-yl)cyclohex-2-en-1-yl)acrylamide]	–
4900 nM	0.77 nM	–	1000 nM	–	C=CC(=O)NC1C=C(c2ncnc3[nH]cc(-c4ccoc4)c23)CCC1 (stereo not shown) [Compound 16, N-(3-(5-(Furan-3-yl)-7H-pyrrolo[2,3-d]pyrimidin-4-yl)cyclohex-2-en-1-yl)acrylamide]	–
